Measurements published in patent US8772305B2, “Substituted pyridinyl-pyrimidines and their use as medicaments” (Boehringer Ingelheim International GmbH, priority 2011, dated 2014).

Target: Recombinant human Syk (amino acids 342-635), GST-Syk kinase fusion protein (Homo sapiens (Human), UniProt P43405)
Assay: In vitro Syk kinase test (Kinase Glo luminescence)
Details: read-out: SYK Enzyme IC50, GST-Syk 4 nM, ATP remaining after 60 min at room temperature
Protocol: The catalytic activity of the GST-Syk kinase fusion protein was determined using the Kinase Glo® Luminescence Kinase test (Promega; V6712). In this homogeneous test the amount of ATP remaining after the kinase reaction is quantified by a luciferin-luciferase reaction using luminescence. The luminescence signal obtained correlates with the amount of ATP still present and thus correlates inversely with the activity of the protein kinase.
GST-Syk was diluted to 6.0 nM in the test buffer and 10 μl of this dilution were used in the kinase test (final concentration of Syk=4 nM in a total volume of 15 μl). […]
After 60 minutes, 10 μl Kinase-Glo® solution (Promega, Cat. #V6712) (heated to room temperature) were added to each well and incubation was continued for a further 15 minutes. The plates were read in a Microplate Scintillation and Luminescence Counter (Canberra Packard GmbH). […]
The output file of the “Counter” is a text file that contains the well number and measured counts in two columns. […] Based on this values the % inherent value for the measurement of each substance concentration was calculated using an “MS-Excel—VB macro”. […] The IC50 values were calculated from the % inhibition values using “GraphPadPrism” software (Version 5) (GraphPad Software Inc.).

IC50: 0.0177 µM
SMILES: CNC(=O)c1c[nH]c2ccc(Nc3nccc(-c4ccccn4)n3)cc12 [Example 284]
